{"source": "patent US6358885B1", "about": "“Substituted phenylheterocyclic herbicides” (Mississippi State University, priority 1992, dated 2002)", "key": {"crabgrass": {"tested_on": "crabgrass", "assay": "Test B preemergence/postemergence greenhouse plant response rating 0 to 10", "assay_type": "in vivo, Digitaria spp.", "conditions": "for Plant response rating, Crabgrass: 0 to 10 scale", "in_short": "(§1)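 Test chemicals were sprayed onto freshly planted seed and, concurrently, onto young plants between the one and four leaf stage. After a twelve- to sixteen-day greenhouse period, each species was visually compared with untreated controls.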"}, "soybean": {"tested_on": "soybean", "assay": "Test C preemergence/postemergence greenhouse plant response rating 0 to 100", "assay_type": "in vivo, Glycine max", "conditions": "POSTEMERGENCE; for Plant response rating, Soybean: 0 to 100 scale", "in_short": "(§2)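 Compounds in non-phytotoxic solvent went onto sandy loam before emergence (seeded one day earlier) or onto plants at the one-to-four leaf stage. Duck salad was treated via flood water (~2.5 cm, maintained) over silt loam.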"}, "velvetleaf": {"tested_on": "velvetleaf", "assay": "Test B preemergence/postemergence greenhouse plant response rating 0 to 10", "assay_type": "in vivo, Abutilon theophrasti", "conditions": "0 to 10 scale", "in_short": "as §1"}, "cheatgrass": {"tested_on": "cheatgrass", "assay": "Test B preemergence/postemergence greenhouse plant response rating 0 to 10", "assay_type": "in vivo, Bromus secalinus", "conditions": "for Plant response rating, Cheatgrass: 0 to 10 scale", "in_short": "as §1"}, "corn": {"tested_on": "corn", "assay": "Test B preemergence/postemergence greenhouse plant response rating 0 to 10", "assay_type": "in vivo, Zea mays", "conditions": "for Plant response rating, Corn: 0 to 10 scale", "in_short": "as §1"}, "barley": {"tested_on": "barley", "assay": "Test C preemergence/postemergence greenhouse plant response rating 0 to 100", "assay_type": "in vivo, Hordeum vulgare", "conditions": "POSTEMERGENCE; for Plant response rating Barley Igri: 0 to 100 scale", "in_short": "as §2"}, "morningglory [1]": {"tested_on": "morningglory", "assay": "Test C preemergence/postemergence greenhouse plant response rating 0 to 100", "assay_type": "in vivo, Ipomoea hederacea", "conditions": "POSTEMERGENCE; for Plant response rating, Morningglory: 0 to 100 scale", "in_short": "as §2"}, "lambsquarters": {"tested_on": "lambsquarters", "assay": "Test C preemergence/postemergence greenhouse plant response rating 0 to 100", "assay_type": "in vivo, Chenopodium album", "conditions": "POSTEMERGENCE; for Plant response rating Lambsquarters: 0 to 100 scale", "in_short": "as §2"}, "rape": {"tested_on": "rape", "assay": "Test B preemergence/postemergence greenhouse plant response rating 0 to 10", "assay_type": "in vivo, Brassica napus", "conditions": "0 to 10 scale", "in_short": "as §1"}, "barnyardgrass": {"tested_on": "barnyardgrass", "assay": "Test B preemergence/postemergence greenhouse plant response rating 0 to 10", "assay_type": "in vivo, Echinochloa crus-galli", "conditions": "for Plant response rating, Barnyardgrass: 0 to 10 scale", "in_short": "as §1"}, "broadleaf signalgrass": {"tested_on": "broadleaf signalgrass", "assay": "Test G preemergence/postemergence greenhouse plant response rating 0 to 100", "assay_type": "in vivo, Brachiaria plantaginea", "conditions": "0 to 100 scale", "excerpt": "Seeds, rhizomes, or plant parts of alfalfa (Medicago ativa), annual bluegrass (Poa annua), bermudagrass (Cynodon dactylon), broadleaf signalgrass (Brachiaria plantaginea), common purslane (Portulaca oleracea), common ragweed (Ambrosia elatior), […] (Paspalum dilatatum), goosegrass (Eleusine indica), guineagrass (Panicum maximum), […] exaltata), johnsongrass (Sorghum halepense), large crabgrass (Digitaria sanguinalis), peanut (Arachis hypoagaea), pitted morningglory (Ipomoea lacunosa), purple nutsedge (Cyperus rotundus), sandbur (Cenchrus echinatus), smooth crabgrass (Digitaria ischaemum) and yellow nutsedge (Cyperus esculentus) were planted into greenhouse pots containing greenhouse planting medium. Each pot contained only one plant species. The test compound was dissolved in a non-phytotoxic solvent and applied preemergence and/or postemergence to the plants. Preemergence applications were made within one day of planting the seeds or plant parts. Postemergence applications were applied when the plants were in the two to four leaf stage (three to twenty cm). Test chemicals were dissolved in a non-phytotoxic solvent and applied preemergence and postemergence to the plants. Untreated control plants and treated plants were placed in the greenhouse and visually evaluated for injury at 13 to 21 days after herbicide application. […] A dash (-) response indicates no test result."}, "giant foxtail": {"tested_on": "giant foxtail", "assay": "Test B preemergence/postemergence greenhouse plant response rating 0 to 10", "assay_type": "in vivo, Setaria faberii", "conditions": "0 to 10 scale", "in_short": "as §1"}, "morningglory [2]": {"tested_on": "morningglory", "assay": "Test B preemergence/postemergence greenhouse plant response rating 0 to 10", "assay_type": "in vivo, Ipomoea hederacea", "conditions": "0 to 10 scale", "in_short": "as §1"}, "chickweed": {"tested_on": "chickweed", "assay": "Test B preemergence/postemergence greenhouse plant response rating 0 to 10", "assay_type": "in vivo, Stellaria media", "conditions": "0 to 10 scale", "in_short": "as §1"}}, "data": [{"compound": "COC(=O)C(C)Oc1cc(-c2nn3c(c2Cl)CCCC3)c(F)cc1Cl", "note": "(stereo not shown) [Compound 28]", "values": [{"measurement": "Plant response rating (0 to 10 scale), Crabgrass", "setting": "crabgrass; POSTEMERGENCE, Rate 50 g/ha", "value": 5}, {"measurement": "Plant response rating, Crabgrass", "setting": "crabgrass; POSTEMERGENCE, Rate 200 g/ha", "value": 6}, {"measurement": "Plant response rating, Crabgrass", "setting": "crabgrass; PREEMERGENCE, Rate 50 g/ha", "value": 0}, {"measurement": "Plant response rating, Crabgrass", "setting": "crabgrass; Rate 200 g/ha, PREEMERGENCE", "value": 2}, {"measurement": "Plant response rating, Soybean", "setting": "soybean; 62 g/ha", "value": 70}, {"measurement": "Plant response rating, Soybean", "setting": "soybean; 250 g/ha", "value": 80}, {"measurement": "Plant response rating (0 to 100), Soybean", "setting": "soybean; Rate 4 g/ha", "value": 0}, {"measurement": "Plant response rating (0 to 100), Soybean", "setting": "soybean; Rate 16 g/ha", "value": 30}, {"measurement": "Plant response rating, Velvetleaf", "setting": "velvetleaf; POSTEMERGENCE, Rate 50 g/ha", "value": 10}, {"measurement": "Plant response rating, Velvetleaf", "setting": "velvetleaf; POSTEMERGENCE, Rate 200 g/ha", "value": 10}, {"measurement": "Plant response rating, Velvetleaf", "setting": "velvetleaf; PREEMERGENCE, Rate 50 g/ha", "value": 5}, {"measurement": "Plant response rating, Velvetleaf", "setting": "velvetleaf; Rate 200 g/ha, PREEMERGENCE", "value": 10}, {"measurement": "Plant response rating (0 to 10 scale), Cheatgrass", "setting": "cheatgrass; POSTEMERGENCE, Rate 50 g/ha", "value": 6}, {"measurement": "Plant response rating, Cheatgrass", "setting": "cheatgrass; POSTEMERGENCE, Rate 200 g/ha", "value": 9}, {"measurement": "Plant response rating, Cheatgrass", "setting": "cheatgrass; PREEMERGENCE, Rate 50 g/ha", "value": 4}, {"measurement": "Plant response rating, Cheatgrass", "setting": "cheatgrass; Rate 200 g/ha, PREEMERGENCE", "value": 6}, {"measurement": "Plant response rating (0 to 10 scale), Corn", "setting": "corn; POSTEMERGENCE, Rate 50 g/ha", "value": 6}, {"measurement": "Plant response rating, Corn", "setting": "corn; POSTEMERGENCE, Rate 200 g/ha", "value": 9}, {"measurement": "Plant response rating, Corn", "setting": "corn; PREEMERGENCE, Rate 50 g/ha", "value": 0}, {"measurement": "Plant response rating, Corn", "setting": "corn; Rate 200 g/ha, PREEMERGENCE", "value": 2}, {"measurement": "Plant response rating Barley Igri", "setting": "barley; 62 g/ha", "value": 40}, {"measurement": "Plant response rating Barley Igri", "setting": "barley; 250 g/ha", "value": 50}, {"measurement": "Plant response rating (0 to 100), Barley Igri", "setting": "barley; Rate 4 g/ha", "value": 20}, {"measurement": "Plant response rating (0 to 100), Barley Igri", "setting": "barley; Rate 16 g/ha", "value": 30}, {"measurement": "Plant response rating, Morningglory", "setting": "morningglory [1]; 62 g/ha", "value": 100}, {"measurement": "Plant response rating, Morningglory", "setting": "morningglory [1]; 250 g/ha", "value": 100}, {"measurement": "Plant response rating (0 to 100), Morningglory", "setting": "morningglory [1]; Rate 4 g/ha", "value": 50}, {"measurement": "Plant response rating (0 to 100), Morningglory", "setting": "morningglory [1]; Rate 16 g/ha", "value": 80}, {"measurement": "Plant response rating Lambsquarters", "setting": "lambsquarters; 62 g/ha", "value": 80}, {"measurement": "Plant response rating Lambsquarters", "setting": "lambsquarters; 250 g/ha", "value": 100}, {"measurement": "Plant response rating (0 to 100), Lambsquarters", "setting": "lambsquarters; Rate 4 g/ha", "value": 50}, {"measurement": "Plant response rating (0 to 100), Lambsquarters", "setting": "lambsquarters; Rate 16 g/ha", "value": 80}, {"measurement": "Plant response rating, Rape", "setting": "rape; POSTEMERGENCE, Rate 50 g/ha", "value": 10}, {"measurement": "Plant response rating, Rape", "setting": "rape; POSTEMERGENCE, Rate 200 g/ha", "value": 10}, {"measurement": "Plant response rating, Rape", "setting": "rape; PREEMERGENCE, Rate 50 g/ha", "value": 9}, {"measurement": "Plant response rating, Rape", "setting": "rape; Rate 200 g/ha, PREEMERGENCE", "value": 10}, {"measurement": "Plant response rating (0 to 10 scale), Barnyardgrass", "setting": "barnyardgrass; POSTEMERGENCE, Rate 50 g/ha", "value": 7}, {"measurement": "Plant response rating, Barnyardgrass", "setting": "barnyardgrass; POSTEMERGENCE, Rate 200 g/ha", "value": 10}, {"measurement": "Plant response rating, Barnyardgrass", "setting": "barnyardgrass; PREEMERGENCE, Rate 50 g/ha", "value": 0}, {"measurement": "Plant response rating, Barnyardgrass", "setting": "barnyardgrass; Rate 200 g/ha, PREEMERGENCE", "value": 1}, {"measurement": "Plant response rating, Brdlf Sgnlgrass", "setting": "broadleaf signalgrass; POSTEMERGENCE, Rate 125 g/ha", "value": 0}, {"measurement": "Plant response rating, Brdlf Sgnlgrass", "setting": "broadleaf signalgrass; POSTEMERGENCE, Rate 250 g/ha", "value": 0}, {"measurement": "Plant response rating, Brdlf Sgnlgrass", "setting": "broadleaf signalgrass; PREEMERGENCE, Rate 125 g/ha", "value": 0}, {"measurement": "Plant response rating, Brdlf Sgnlgrass", "setting": "broadleaf signalgrass; PREEMERGENCE, Rate 250 g/ha", "value": 0}, {"measurement": "Plant response rating, Giant foxtail", "setting": "giant foxtail; POSTEMERGENCE, Rate 50 g/ha", "value": 5}, {"measurement": "Plant response rating, Giant foxtail", "setting": "giant foxtail; POSTEMERGENCE, Rate 200 g/ha", "value": 8}, {"measurement": "Plant response rating, Giant foxtail", "setting": "giant foxtail; PREEMERGENCE, Rate 50 g/ha", "value": 0}, {"measurement": "Plant response rating, Giant foxtail", "setting": "giant foxtail; Rate 200 g/ha, PREEMERGENCE", "value": 5}, {"measurement": "Plant response rating, Morningglory", "setting": "morningglory [2]; POSTEMERGENCE, Rate 50 g/ha", "value": 8}, {"measurement": "Plant response rating, Morningglory", "setting": "morningglory [2]; POSTEMERGENCE, Rate 200 g/ha", "value": 10}, {"measurement": "Plant response rating, Morningglory", "setting": "morningglory [2]; PREEMERGENCE, Rate 50 g/ha", "value": 3}, {"measurement": "Plant response rating, Morningglory", "setting": "morningglory [2]; Rate 200 g/ha, PREEMERGENCE", "value": 3}, {"measurement": "Plant response rating, Chickweed", "setting": "chickweed; POSTEMERGENCE, Rate 200 g/ha", "value": 9}, {"measurement": "Plant response rating, Chickweed", "setting": "chickweed; PREEMERGENCE, Rate 50 g/ha", "value": 1}, {"measurement": "Plant response rating, Chickweed", "setting": "chickweed; Rate 200 g/ha, PREEMERGENCE", "value": 7}]}]}
